From US8513225B2, “Composition and method for topical treatment of skin lesions” (Winlind Skincare, LLC, priority 2008, dated 2013)

Tests used:
[1] = penetration of PG into human nails; details: 30 minutes after application of a thin layer to nail surface, adults
[2] = repeated application to normal skin of adults without acne; details: applied repeatedly to face and arm, 2 adults, several days
wart = details: conventional treatment; cited from earlier work

SMILES	absorption into nails [1]	adverse reactions on normal skin [2]	time for wart removal process (wart) [weeks]
CC(O)CO (stereo not drawn) [100% PG, propylene glycol]	virtually no PG can be found on the nail surface	No adverse reactions were observed	–
O=C(O)c1ccccc1O [high strength salicylic acid, salicylic acid]	–	–	6 to 12
